# Activity calls are given as the source filed them. The rule behind the calls is not given here.
# Target: Serine/threonine-protein kinase mTOR (Homo sapiens) (UniProt P42345)
# Experiment: binders of mTOR FRB domain, biophysical, NMR (AID 1648)
# Details: NMR binding to FRB domain, chemical shift
# Serine/threonine-protein kinase mTOR (Homo sapiens), sequence (P42345 2015-2114): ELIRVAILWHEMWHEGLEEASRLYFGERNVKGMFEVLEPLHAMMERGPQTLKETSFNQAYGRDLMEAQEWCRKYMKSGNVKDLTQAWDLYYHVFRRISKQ
row,SMILES,Kd
1,O=C(Cc1cccs1)Nc1ccccn1,> 4 mM (inactive)
2,O=C(O)C1(O)C[C@@H](O)C(O)[C@H](O)C1 (stereo partly specified),> 4 mM (inactive)
3,O=C(O)CSCc1c(F)cccc1Cl,> 4 mM (inactive)
4,Cc1n[nH]c(C)c1CC(=O)O,> 4 mM (inactive)
5,NC12CC3CC(C1)CC(C(=O)O)(C3)C2,> 4 mM (inactive)
6,CN(Cc1nc2ccccc2n1C)S(C)(=O)=O,> 4 mM (inactive)
7,COC(=O)CC1NC2CCCCC2NC1=O (stereo unspecified),> 4 mM (inactive)
8,CC(C)CCCC(C)[C@H]1CCC2C3CC[C@H]4CC(=O)CC[C@]4(C)C3CC[C@@]21C (stereo partly specified),> 4 mM (inactive)
9,OC[C@H]1O[C@@](CO)(O[C@@H]2O[C@H](CO)[C@@H](O)[C@H](O)[C@H]2O)[C@@H](O[C@@H]2O[C@H](CO)[C@@H](O)[C@H](O)[C@H]2O)[C@@H]1O,> 4 mM (inactive)
10,CN1CCN(c2ncnc3nc[nH]c23)CC1,> 4 mM (inactive)
11,CCOC(=O)C1CCC(=O)c2cccn21 (stereo unspecified),> 4 mM (inactive)
12,CC(=O)NC(O)C(=O)c1ccccc1 (stereo unspecified),> 4 mM (inactive)
13,Cc1cc(C(=O)Nc2ccccn2)no1,> 4 mM (inactive)
14,COc1ccc2nc(N)sc2c1,> 4 mM (inactive)
15,O=C(O)c1ccc(N2CCOCC2)nc1,> 4 mM (inactive)
16,NC(=O)c1ccsc1N,> 4 mM (inactive)
17,O=C(Nc1cccnc1)c1c(F)cccc1F,> 4 mM (inactive)
18,S=c1nc[nH]c2c1cnn2-c1ccccc1,> 4 mM (inactive)
19,O=C(Nc1ccccc1CO)c1ccccc1F,> 4 mM (inactive)
20,Nc1nc(-c2cccnc2)nn1C(=O)Cc1ccccc1,> 4 mM (inactive)
21,CC(C)(C)c1cc(N)n[nH]1,> 4 mM (inactive)
22,Cc1c(/C=N\n2cnnc2)c2ccccc2n1C,> 4 mM (inactive)
23,COc1cc(OC)c2c(c1Cl)OC1(C2=O)C(O)=CC(=O)CC1C (stereo unspecified),> 4 mM (inactive)
24,O=C(O[C@@H]1Cc2c(O)cc(O)cc2O[C@@H]1c1cc(=O)c(O)c2c(O)c(O)cc([C@H]3Oc4cc(O)cc(O)c4C[C@H]3O)c2c1)c1cc(O)c(O)c(O)c1,> 4 mM (inactive)
25,COc1ccccc1-c1n[nH]c(=O)o1,> 4 mM (inactive)

row,SMILES,Kd
1,COC(=O)c1ccc(NC(=O)CC2NCCNC2=O)cc1 (stereo unspecified),> 4 mM (inactive)
2,COC(=O)c1scc(C)c1N,> 4 mM (inactive)
3,O=C(c1ccccc1)c1ccccc1C(=O)N1CCCC1,> 4 mM (inactive)
4,O=C(O)c1ccc(-n2cccc2)cc1,> 4 mM (inactive)
5,O=C(O)CNC(=O)c1ccc([N+](=O)[O-])cc1,> 4 mM (inactive)
6,N#Cc1nc(-c2ccccc2Cl)oc1N1CCOCC1,> 4 mM (inactive)
7,COc1ccccc1-c1nc(=S)[nH][nH]1,> 4 mM (inactive)
8,COCCn1c(C)cc(O)cc1=O,> 4 mM (inactive)
9,O=C(O)Cc1noc2ccccc12,> 4 mM (inactive)
10,CN(C)S(=O)(=O)NCc1ccc2c(c1)OCO2,> 4 mM (inactive)
11,NC(=O)C1CCN(CN2C(=O)c3ccccc3C2=O)CC1,> 4 mM (inactive)
12,Cn1cccc1C(=S)N1CCOCC1,> 4 mM (inactive)
13,Cc1ccc(CN2CCNC(=O)C2CC(=O)O)o1 (stereo unspecified),> 4 mM (inactive)
14,O=C1C2C3C=CC(C3)C2C(=O)N1c1ccccn1 (stereo unspecified),> 4 mM (inactive)
15,CSc1ncc(CO)n1Cc1ccccc1,> 4 mM (inactive)
16,Cc1cc(=O)n(CC(C)C)c(O)c1C#N,> 4 mM (inactive)
17,Cn1nnc2c(Cl)ncnc21,> 4 mM (inactive)
18,CCN(CC)C(=O)c1n[nH]c(=O)c2ccccc12,> 4 mM (inactive)
19,Cc1ccc(Nc2nnns2)cc1C,> 4 mM (inactive)
20,CN1C(=O)C(Cc2c[nH]c3ccccc23)C(=O)N(C)C1=O,> 4 mM (inactive)
21,O=C(Nc1ccccn1)c1cc(-n2cnnc2)ccc1Cl,> 4 mM (inactive)
22,CC(=O)Nc1nnc(-c2ccco2)o1,> 4 mM (inactive)
23,CCOC(=O)C1=C(C)N2CCN=C2S1,> 4 mM (inactive)
24,O=C1CC(=O)N(c2cccc(Cl)c2)N1,> 4 mM (inactive)
25,NC(=O)CSc1ccc2nnc(-c3ccccc3)n2n1,> 4 mM (inactive)

row,SMILES,Kd
1,Cc1noc(-c2ccccc2)c1CO,> 4 mM (inactive)
2,Nc1c(N2CCCC2)cnn(-c2ccccc2)c1=O,> 4 mM (inactive)
3,CC(=O)Nc1cc(C(N)=O)cc(C(N)=O)c1,> 4 mM (inactive)
4,O=C1N/C(=N\c2ccccn2)SC1Cc1ccccc1 (stereo unspecified),> 4 mM (inactive)
5,COc1ncccc1N,> 4 mM (inactive)
6,CCNCC(O)c1ccc([N+](=O)[O-])cc1 (stereo unspecified),> 4 mM (inactive)
7,Cn1c(=O)c2c(n(C)c1=O)=NC1(CCCCC1)N=2,> 4 mM (inactive)
8,COC(=O)C[C@H]1C(C)(C)C(=O)[C@@H]2CC3=C4CC(=O)O[C@@H](c5ccoc5)[C@]4(C)CCC3C1(C)C2=O (stereo partly specified),> 4 mM (inactive)
9,CN(C)c1nc(N2CCOCC2)c2cnn(C)c2n1,> 4 mM (inactive)
10,CC1(NC(=O)NCc2ccccc2)CCS(=O)(=O)C1 (stereo unspecified),> 4 mM (inactive)
11,NC(=O)CN1CCCCCC1=O,> 4 mM (inactive)
12,Cc1ccc(-n2[nH]c(C)cc2=O)cc1,> 4 mM (inactive)
13,Cc1ccc(N2C(=O)CC(Sc3ncn[nH]3)C2=O)cc1 (stereo unspecified),> 4 mM (inactive)
14,Cn1nc(C(=O)NC2CCCCC2)c2ccccc2c1=O,> 4 mM (inactive)
15,O=C(c1cc2ccccc2o1)N1CCCCCC1,> 4 mM (inactive)
16,CC1=C(/C=C/C(C)=C/C=C/C(C)=C/CO)C(C)(C)CCC1,> 4 mM (inactive)
17,COc1cccc2onc(N)c12,> 4 mM (inactive)
18,Cc1nnc(NCc2cccnc2)[nH]c1=O,> 4 mM (inactive)
19,Oc1ccc(-n2cncn2)cc1,> 4 mM (inactive)
20,NC(=O)CSc1nc2[nH]ncc2c(=O)[nH]1,> 4 mM (inactive)
21,C=CCCCCCCCCCCCc1ccco1,> 4 mM (inactive)
22,OCc1ccc(CN2CCOCC2)cc1,> 4 mM (inactive)
23,CCOC(=O)c1c(C)cc(O)c(C=O)c1O,> 4 mM (inactive)
24,Cc1c(C(=O)NCc2ccccn2)oc2ccccc12,> 4 mM (inactive)
25,COC(=O)CSc1nnc(-c2ccc(C(=O)O)cc2)o1,> 4 mM (inactive)

row,SMILES,Kd
1,CC1(C(=O)O)CC2C=CC1C2 (stereo unspecified),> 4 mM (inactive)
2,O=C1CSC(=Nc2ccccc2)N1,> 4 mM (inactive)
3,COc1cc2c(cc1OC)C(=O)OC2,> 4 mM (inactive)
4,O=C(O)c1ccc2c(c1)CCO2,> 4 mM (inactive)
5,O=C1NC(=O)C2C3C=CC(O3)C12 (stereo unspecified),> 4 mM (inactive)
6,Nc1ccc(-n2cccn2)cc1,> 4 mM (inactive)
7,O=C(Cn1cncn1)c1ccc(F)c(F)c1,> 4 mM (inactive)
8,O=C1CC(=O)N(c2ccccc2F)C(=S)N1,> 4 mM (inactive)
9,Nc1cccc(NC(=O)c2ccco2)c1,> 4 mM (inactive)
10,Cc1noc(C)c1C(=O)NC1=NCCS1,> 4 mM (inactive)
11,Cn1ncc(NC(=O)Nc2ccc(F)cc2F)c1C(N)=O,> 4 mM (inactive)
12,Cc1nc2ccccc2c(=O)n1NC(=O)Nc1ccccc1,> 4 mM (inactive)
13,CCOC(=O)C1=C(O)CCN(C)C1,> 4 mM (inactive)
14,O=C(O)CCCc1nc2ccccc2s1,> 4 mM (inactive)
15,O=C(O)C1CSC2(CCCCC2)N1 (stereo unspecified),> 4 mM (inactive)
16,O=S(=O)(N1CCCCC1)n1nnc2ccccc21,> 4 mM (inactive)
17,CS(=O)(=O)c1nncn1-c1ccccc1,> 4 mM (inactive)
18,Cc1scc(C(=O)Nc2ccon2)c1-c1ccccc1,> 4 mM (inactive)
19,COc1ccc(-c2cc(=O)c3c(O)cc(O[C@H]4O[C@H](CO[C@@H]5O[C@@H](C)[C@H](O)[C@@H](O)[C@H]5O)[C@@H](O)[C@H](O)[C@H]4O)cc3o2)cc1,> 4 mM (inactive)
20,COc1ccc(N/C(N)=N\c2nc(C)cc(C)n2)cc1,> 4 mM (inactive)
21,COc1cc2c(cc1OC)-c1nnnn1C(C)(C)C2,> 4 mM (inactive)
22,CC(=O)O[C@H]1CC[C@@]2(C)C(=CCC3C2CC[C@@]2(C)C3CC[C@@H]2C(C)CCCC(C)C)C1 (stereo partly specified),> 4 mM (inactive)
23,COc1ccccc1NC(=O)c1snnc1C,> 4 mM (inactive)
24,CC(=O)NC(O)C(=O)c1cccs1 (stereo unspecified),> 4 mM (inactive)
25,COc1ccc(C(N)=O)cc1N,> 4 mM (inactive)

row,SMILES,Kd
1,Cc1ccccc1NC(=O)CC1NCCNC1=O (stereo unspecified),> 4 mM (inactive)
2,Cc1c(C(=O)N2CCOCC2)oc2c1C(=O)CC(C)(C)C2,> 4 mM (inactive)
3,O=C(CSc1ncn[nH]1)c1ccc2c(c1)OCO2,> 4 mM (inactive)
4,O=C(c1ccccc1)c1ccccc1C(=O)N1CCOCC1,> 4 mM (inactive)
5,N#Cc1cnn2c(C(F)(F)F)cc(C(F)(F)F)nc12,> 4 mM (inactive)
6,O=C1CN(C(=O)c2ccccc2F)c2ccccc2N1,> 4 mM (inactive)
7,COc1ccc2c(c1OC)C(=O)O[C@H]2[C@H]1c2cc3c(cc2CCN1C)OCO3,> 4 mM (inactive)
8,COc1ccc(S(=O)(=O)N2CCC(C(N)=O)CC2)cc1,> 4 mM (inactive)
9,COc1ccc(S(=O)(=O)NCCO)cc1,> 4 mM (inactive)
10,O=c1cc(O)nc(SCc2ccccc2)[nH]1,> 4 mM (inactive)
11,O=C(O)c1ccc2[nH]c3c(c2c1)CSCC3,> 4 mM (inactive)
12,CC(=O)NC(=S)Nc1cccc(C(=O)O)c1C,> 4 mM (inactive)
13,CCn1c(-c2c[nH]c3ccccc23)n[nH]c1=S,> 4 mM (inactive)
14,CCn1cnc2cc([N+](=O)[O-])ccc2c1=O,> 4 mM (inactive)
15,CC(=O)O[C@H]1CCC2(C)C3=C(CCC2C1(C)C)[C@]1(C)CCC(C(C)CCC=C(C)C)[C@@]1(C)CC3 (stereo partly specified),> 4 mM (inactive)
16,Nc1cccc(-c2cnco2)c1,> 4 mM (inactive)
17,O=C(Nc1ccc2c(c1)CCC2)c1cnccn1,> 4 mM (inactive)
18,O=c1nc(C(F)(F)F)nc2ccccn12,> 4 mM (inactive)
19,COc1ccc(Cl)cc1NC(=O)C(N)=O,> 4 mM (inactive)
20,Cn1cnc2nc3n(c2c1=O)CCC3,> 4 mM (inactive)
21,CC(=O)Nc1ccc(S(=O)(=O)N(C)C)cc1,> 4 mM (inactive)

# From PubChem BioAssay AID1648 (Sanford-Burnham Center for Chemical Genomics, 2009)
